Assay results reported in ChEMBL document CHEMBL1201862, “PubChem BioAssay data set” (2004).
The source made the active and inactive calls.

How the values were obtained:
[1] = target: T1, Fatty acid synthase (Homo sapiens, UniProt P49327); test: FAS thioesterase domain inhibitors, dose response, biochemical, endpoint fluorescence intensity, uHTS hits (AID 624327); format: functional;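 further: fluorescence from hydrolysis of an O-methyl fluorescein acyl ester substrate by the enzyme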
[2] = target: T1, Fatty acid synthase; test: FAS thioesterase domain inhibitors, dose response, biochemical, kinetic fluorescence intensity (AID 624326); format: functional;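 further: rate of fluorescence rise from hydrolysis of a fluorogenic O-methyl fluorescein ester substrate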
[3] = target: Large T antigen (Simian virus 40, UniProt P03070); format: functional, Betapolyomavirus macacae;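 further: Confirmatory-stage PubChem screen for compounds that inhibit SV40 T antigen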
Large T antigen, sequence (P03070 whole entry): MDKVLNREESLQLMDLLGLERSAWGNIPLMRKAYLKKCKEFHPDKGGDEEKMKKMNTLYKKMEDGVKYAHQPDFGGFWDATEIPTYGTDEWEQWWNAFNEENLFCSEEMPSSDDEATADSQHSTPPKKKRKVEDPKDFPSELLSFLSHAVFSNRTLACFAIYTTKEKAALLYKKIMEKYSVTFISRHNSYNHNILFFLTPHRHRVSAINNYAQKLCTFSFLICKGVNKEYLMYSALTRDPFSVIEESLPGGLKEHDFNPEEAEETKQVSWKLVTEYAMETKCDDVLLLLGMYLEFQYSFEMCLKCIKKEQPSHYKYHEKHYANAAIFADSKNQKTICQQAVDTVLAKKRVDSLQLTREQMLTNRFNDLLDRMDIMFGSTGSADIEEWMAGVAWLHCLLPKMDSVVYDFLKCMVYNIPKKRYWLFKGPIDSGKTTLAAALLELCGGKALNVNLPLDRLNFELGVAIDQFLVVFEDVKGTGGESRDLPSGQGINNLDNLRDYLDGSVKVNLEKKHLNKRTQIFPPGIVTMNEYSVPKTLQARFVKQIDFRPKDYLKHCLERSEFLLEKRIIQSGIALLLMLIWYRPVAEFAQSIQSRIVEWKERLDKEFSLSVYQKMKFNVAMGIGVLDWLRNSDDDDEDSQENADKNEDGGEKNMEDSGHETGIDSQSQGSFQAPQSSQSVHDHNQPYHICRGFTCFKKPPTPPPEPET

[4] = target: T2, Leucine aminopeptidase (Plasmodium falciparum 3D7, UniProt Q8IL11); test: P. falciparum M17LAP inhibitors, primary screen, biochemical, fluorogenic H-Leu-NHMec substrate, 1536-well (AID 1619); format: functional
T2 sequence (Q8IL11 whole entry): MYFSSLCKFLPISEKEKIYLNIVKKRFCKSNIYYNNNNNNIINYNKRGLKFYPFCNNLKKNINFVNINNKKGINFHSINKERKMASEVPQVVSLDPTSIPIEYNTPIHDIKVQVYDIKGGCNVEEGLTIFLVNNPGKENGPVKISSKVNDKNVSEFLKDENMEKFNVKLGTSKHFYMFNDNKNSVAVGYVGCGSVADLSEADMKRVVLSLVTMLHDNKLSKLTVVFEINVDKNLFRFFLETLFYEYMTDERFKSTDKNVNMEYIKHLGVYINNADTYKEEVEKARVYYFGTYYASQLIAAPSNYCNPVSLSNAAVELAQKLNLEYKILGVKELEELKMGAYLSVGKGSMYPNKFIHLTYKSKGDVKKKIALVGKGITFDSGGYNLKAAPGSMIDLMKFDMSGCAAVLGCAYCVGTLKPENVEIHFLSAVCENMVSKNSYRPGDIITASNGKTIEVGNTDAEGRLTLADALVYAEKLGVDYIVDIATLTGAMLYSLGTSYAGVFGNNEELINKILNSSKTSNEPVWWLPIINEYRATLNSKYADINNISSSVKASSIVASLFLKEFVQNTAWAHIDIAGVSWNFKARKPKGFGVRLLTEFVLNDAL

[5] = P. falciparum Dd2 growth inhibitors, dose response, SYBR Green, cherry-picked samples (AID 1159567); format: functional, cell-based
[6] = target: FAD-linked sulfhydryl oxidase ALR (Homo sapiens, UniProt P55789); test: inhibitors of human ALR sulfhydryl oxidase, dose response, biochemical, H2O2 detection, luminescence, cherry-pick (AID 493248)
FAD-linked sulfhydryl oxidase ALR, sequence (P55789 whole entry): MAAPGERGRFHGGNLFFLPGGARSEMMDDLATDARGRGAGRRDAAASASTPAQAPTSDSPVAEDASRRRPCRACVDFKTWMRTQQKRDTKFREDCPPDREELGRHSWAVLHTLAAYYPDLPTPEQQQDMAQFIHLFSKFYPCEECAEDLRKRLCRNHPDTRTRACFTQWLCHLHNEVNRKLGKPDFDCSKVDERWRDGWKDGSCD

[7] = target: T3, Protein RecA (Mycobacterium tuberculosis, UniProt P9WHJ3); test: Fluorescence Cell-Free Homogeneous Dose Retest to Identify Inhibitors of RecA-Intein Splicing Activity. [Related pubchem assays (depositor defined):AID2097, AID2223, AID489010, AID492950]; format: functional
T3 sequence (P9WHJ3 whole entry): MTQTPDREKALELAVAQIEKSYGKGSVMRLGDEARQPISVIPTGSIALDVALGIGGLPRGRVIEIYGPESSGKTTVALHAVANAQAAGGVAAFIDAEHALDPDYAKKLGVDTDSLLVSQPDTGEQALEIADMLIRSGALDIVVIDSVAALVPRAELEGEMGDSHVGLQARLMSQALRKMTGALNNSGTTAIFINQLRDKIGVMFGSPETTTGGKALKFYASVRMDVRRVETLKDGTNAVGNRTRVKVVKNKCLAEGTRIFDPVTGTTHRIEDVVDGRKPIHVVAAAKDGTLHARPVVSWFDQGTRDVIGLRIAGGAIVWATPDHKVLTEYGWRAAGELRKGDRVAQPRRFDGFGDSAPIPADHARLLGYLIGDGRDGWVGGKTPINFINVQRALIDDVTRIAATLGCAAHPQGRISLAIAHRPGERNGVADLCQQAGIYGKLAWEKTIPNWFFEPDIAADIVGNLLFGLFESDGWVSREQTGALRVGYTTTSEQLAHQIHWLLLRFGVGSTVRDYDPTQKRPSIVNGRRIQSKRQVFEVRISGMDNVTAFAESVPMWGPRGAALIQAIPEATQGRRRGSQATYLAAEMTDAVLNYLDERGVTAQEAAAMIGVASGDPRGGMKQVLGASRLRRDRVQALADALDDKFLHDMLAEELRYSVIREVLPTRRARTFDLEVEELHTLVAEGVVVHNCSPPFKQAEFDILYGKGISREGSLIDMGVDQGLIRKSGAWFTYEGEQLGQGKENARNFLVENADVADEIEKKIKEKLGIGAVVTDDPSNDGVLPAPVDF

[8] = Luminescence Cell-Based Dose Confirmation HTS to Identify Activators of 5'UTR Stem-Loop Driven Alpha-Synuclein mRNA Translation in H4 Neuroglioblastoma Cells. [Related pubchem assays: 1829 (Project Summary), 1814 (Primary HTS)]; format: functional
[9] = Luminescence Cell-Based Dose Response HTS to Identify Activators of Luciferase Translation or Activity in H4 […] Cells. [Related pubchem assays: 1829 (Project Summary), 1814 (Primary HTS)]; format: functional
[10] = system: H4; test: Luminescence Cell-Based Dose Response HTS to Identify Activators of 5'UTR Stem-Loop Driven Prion Protein mRNA Translation in H4 Neuroglioblastoma Cells. [Related pubchem assays: 1829 (Project Summary), 1814 (Primary HTS)]; format: functional; settings: Homo sapiens
[11] = target: Genome polyprotein (dengue virus type 2, UniProt P29990); test: Dengue-2 NS5 methyltransferase inhibitors, primary screen, biochemical, confirmation dose response (AID 588689); format: functional
Genome polyprotein, sequence (P29990 2492-3391 limits assumed): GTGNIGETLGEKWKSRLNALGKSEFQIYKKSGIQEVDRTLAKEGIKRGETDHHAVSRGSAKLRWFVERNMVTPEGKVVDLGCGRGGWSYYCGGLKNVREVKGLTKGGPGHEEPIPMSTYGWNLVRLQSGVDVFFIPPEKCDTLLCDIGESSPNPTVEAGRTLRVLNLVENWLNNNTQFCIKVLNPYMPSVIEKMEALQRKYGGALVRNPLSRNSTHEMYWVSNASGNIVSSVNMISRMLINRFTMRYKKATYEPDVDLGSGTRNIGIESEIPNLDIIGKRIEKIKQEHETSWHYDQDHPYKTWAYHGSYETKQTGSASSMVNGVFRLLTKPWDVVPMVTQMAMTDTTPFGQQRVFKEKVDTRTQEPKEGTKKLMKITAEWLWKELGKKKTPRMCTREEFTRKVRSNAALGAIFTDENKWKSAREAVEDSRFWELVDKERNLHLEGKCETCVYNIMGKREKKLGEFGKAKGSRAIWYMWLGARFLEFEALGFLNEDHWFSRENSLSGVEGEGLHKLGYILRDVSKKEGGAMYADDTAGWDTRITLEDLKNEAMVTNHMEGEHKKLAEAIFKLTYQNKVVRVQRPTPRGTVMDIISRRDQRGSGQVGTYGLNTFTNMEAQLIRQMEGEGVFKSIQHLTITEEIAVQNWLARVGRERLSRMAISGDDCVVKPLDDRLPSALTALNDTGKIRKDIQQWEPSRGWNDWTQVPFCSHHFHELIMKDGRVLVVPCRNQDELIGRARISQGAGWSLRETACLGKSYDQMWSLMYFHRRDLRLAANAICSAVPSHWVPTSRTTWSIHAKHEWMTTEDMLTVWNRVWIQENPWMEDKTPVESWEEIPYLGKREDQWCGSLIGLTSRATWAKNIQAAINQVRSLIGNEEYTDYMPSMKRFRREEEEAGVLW

T1 sequence (P49327 whole entry, the tested form may be a part): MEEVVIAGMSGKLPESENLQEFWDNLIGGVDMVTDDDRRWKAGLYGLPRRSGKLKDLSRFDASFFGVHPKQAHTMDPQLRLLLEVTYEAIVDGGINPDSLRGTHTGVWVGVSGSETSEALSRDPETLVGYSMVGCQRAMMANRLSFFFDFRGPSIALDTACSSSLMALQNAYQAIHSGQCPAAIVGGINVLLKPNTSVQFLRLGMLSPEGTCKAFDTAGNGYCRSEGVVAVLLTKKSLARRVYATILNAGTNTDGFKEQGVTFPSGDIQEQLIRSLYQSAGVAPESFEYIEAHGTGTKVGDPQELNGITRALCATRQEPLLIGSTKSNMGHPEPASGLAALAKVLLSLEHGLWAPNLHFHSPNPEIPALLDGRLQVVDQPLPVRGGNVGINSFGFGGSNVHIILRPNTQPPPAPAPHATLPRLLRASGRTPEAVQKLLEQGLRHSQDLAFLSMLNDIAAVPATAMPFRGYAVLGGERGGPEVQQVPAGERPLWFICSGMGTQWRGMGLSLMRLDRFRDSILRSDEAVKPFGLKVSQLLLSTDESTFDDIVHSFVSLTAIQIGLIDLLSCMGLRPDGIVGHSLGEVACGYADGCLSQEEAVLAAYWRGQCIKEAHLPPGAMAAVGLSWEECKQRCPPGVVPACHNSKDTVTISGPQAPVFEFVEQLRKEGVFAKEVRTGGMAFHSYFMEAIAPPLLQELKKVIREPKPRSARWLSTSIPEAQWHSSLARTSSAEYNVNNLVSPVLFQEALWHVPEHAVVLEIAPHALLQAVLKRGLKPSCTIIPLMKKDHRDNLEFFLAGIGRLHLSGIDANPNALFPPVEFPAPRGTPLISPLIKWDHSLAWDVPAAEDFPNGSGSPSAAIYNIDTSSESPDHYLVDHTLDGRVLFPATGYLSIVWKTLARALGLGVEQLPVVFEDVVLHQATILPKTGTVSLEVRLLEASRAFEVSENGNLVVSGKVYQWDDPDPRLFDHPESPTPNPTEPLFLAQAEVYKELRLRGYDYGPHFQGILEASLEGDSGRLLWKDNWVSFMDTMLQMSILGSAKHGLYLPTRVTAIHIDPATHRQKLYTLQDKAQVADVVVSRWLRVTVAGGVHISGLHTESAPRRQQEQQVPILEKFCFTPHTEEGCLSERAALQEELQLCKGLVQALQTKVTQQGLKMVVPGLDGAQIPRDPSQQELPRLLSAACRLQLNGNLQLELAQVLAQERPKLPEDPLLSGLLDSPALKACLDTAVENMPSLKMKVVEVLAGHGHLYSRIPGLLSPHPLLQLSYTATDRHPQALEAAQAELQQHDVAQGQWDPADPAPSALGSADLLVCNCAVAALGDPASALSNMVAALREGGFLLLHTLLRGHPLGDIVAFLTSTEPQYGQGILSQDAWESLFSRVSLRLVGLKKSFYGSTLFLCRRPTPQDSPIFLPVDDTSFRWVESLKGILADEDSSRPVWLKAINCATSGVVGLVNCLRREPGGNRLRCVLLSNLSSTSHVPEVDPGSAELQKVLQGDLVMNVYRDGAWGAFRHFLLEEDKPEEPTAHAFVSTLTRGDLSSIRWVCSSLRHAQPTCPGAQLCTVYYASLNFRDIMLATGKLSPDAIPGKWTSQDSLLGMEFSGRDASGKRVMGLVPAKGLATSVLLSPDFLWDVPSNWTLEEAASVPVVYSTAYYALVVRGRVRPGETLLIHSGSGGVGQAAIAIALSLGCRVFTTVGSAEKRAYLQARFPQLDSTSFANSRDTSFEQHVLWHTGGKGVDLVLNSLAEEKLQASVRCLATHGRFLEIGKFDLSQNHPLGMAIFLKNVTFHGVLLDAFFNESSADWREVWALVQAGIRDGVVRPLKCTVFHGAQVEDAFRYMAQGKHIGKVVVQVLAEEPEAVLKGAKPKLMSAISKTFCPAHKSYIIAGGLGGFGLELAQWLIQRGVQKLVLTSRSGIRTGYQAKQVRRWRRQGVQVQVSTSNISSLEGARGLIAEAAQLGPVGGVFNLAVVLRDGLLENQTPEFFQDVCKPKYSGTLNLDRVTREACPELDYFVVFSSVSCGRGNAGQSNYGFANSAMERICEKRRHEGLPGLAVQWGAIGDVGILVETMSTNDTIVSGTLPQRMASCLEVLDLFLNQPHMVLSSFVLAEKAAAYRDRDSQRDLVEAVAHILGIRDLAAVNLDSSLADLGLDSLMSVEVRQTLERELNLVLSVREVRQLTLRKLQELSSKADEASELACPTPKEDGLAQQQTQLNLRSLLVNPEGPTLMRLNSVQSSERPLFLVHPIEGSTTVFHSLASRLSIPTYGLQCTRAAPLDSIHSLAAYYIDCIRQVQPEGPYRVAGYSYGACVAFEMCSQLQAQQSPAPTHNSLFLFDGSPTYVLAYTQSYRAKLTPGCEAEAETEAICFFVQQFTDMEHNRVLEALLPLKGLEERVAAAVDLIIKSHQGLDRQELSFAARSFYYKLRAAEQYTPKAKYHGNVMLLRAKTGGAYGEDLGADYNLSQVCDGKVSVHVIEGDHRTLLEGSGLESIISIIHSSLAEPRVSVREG

Cc1cc(Br)ccc1NC(=O)CN(C)C(=O)c1cc([N+](=O)[O-])ccc1N1CCOCC1
IC50 [1]: 8.23 µM (active) | IC50 [2]: 4.65 µM (active)

Cc1nc2cc(N=NN(C)C)ccc2[nH]1
IC50 [3]: > 100 µM (active)

CSc1ccc(Cl)c(C(=O)OCC(=O)NCc2ccco2)c1
IC50 [4]: 49.9 µM (active)

CCC(=O)N1[C@H](CO)[C@H](c2ccc(C3=CCCCC3)cc2)[C@H]1CNCC1CCC1
AC50 [5]: 3.46 µM (active)

Cc1cc(-c2ccc(N=Nc3c(S(=O)(=O)O)cc4cc(S(=O)(=O)O)cc(N)c4c3O)c(C)c2)ccc1N=Nc1c(S(=O)(=O)O)cc2cc(S(=O)(=O)O)cc(N)c2c1O
IC50 [3]: 2.38 µM (active)

COc1ccc(C2CC23N=C(c2ccccc2)OC3=O)cc1 (centres undefined)
IC50 [1]: 0.724 µM (active) | IC50 [2]: 0.712 µM (active)

CO[C@H]1CN(C)C(=O)c2cc(NC(=O)c3cc(C)on3)ccc2OC[C@H](C)N(C(=O)C2CC2)C[C@H]1C
AC50 [5]: 4.96 µM (active)

Cc1nn(CCOc2ccc(Br)cc2)c(C)c1[N+](=O)[O-]
IC50 [1]: 15.9 µM (active) | IC50 [2]: 24.6 µM (inactive)

NNC(=O)c1cccc(COc2ccccc2Br)c1
AC50 [6]: > 100 µM (inactive)

CC(C)[C@H](NC(=O)Nc1ccc(Oc2ccccc2)cc1)C(=O)O
IC50 [4]: 15.7 µM (active) | EC50 [7]: > 380 µM (inactive)

CC(C)c1ccc(/C=C2\SC(=O)N(CC(=O)NCCCn3ccnc3)C2=O)cc1
EC50 [8]: 29.8 µM (active) | EC50 [9]: 0.418 µM (active) | EC50 [10]: 18.7 µM (active) | AC50 [6]: 1.75 µM (active)

CO[C@H]1CN(C)C(=O)c2ccc(NC(=O)Nc3ccc(C(F)(F)F)cc3)cc2OC[C@@H](C)NC[C@@H]1C
AC50 [5]: 9.45 µM (active)

O=C1CS/C(=C\S(=O)(=O)c2ccc(Cl)cc2)N1
IC50 [4]: 40 µM (active)

O=C(Nc1nc(=O)n(C(=O)C2CC2)s1)c1ccccc1
IC50 [4]: 40.7 µM (active)

O=C(O)CC12CC3CC(C1)CC(n1ncc(NCc4ccc5c(c4)OCO5)c(Cl)c1=O)(C3)C2
IC50 [4]: 40.6 µM (active)

O=C(O)CN1C(=O)/C(=C\c2ccccc2OCc2ccc(F)cc2)SC1=S
IC50 [11]: 43.2 µM (active)

Cc1ccc2c(c1)C(=O)C(=O)N2CCCOc1ccccc1C
IC50 [11]: > 100 µM (active)

Cc1cc(-c2nnc3n2N=C(c2ccc(F)cc2)CS3)[nH]n1
EC50 [8]: > 120 µM (not active) | EC50 [9]: > 120 µM (not active) | EC50 [10]: > 120 µM (not active)

CCN(CCCNC(=O)CNC(=O)Cn1cnc2ccccc2c1=O)c1ccccc1
AC50 [6]: 0.729 µM (active)

N=C(NOC(=O)c1ccco1)c1ccc(Cl)cc1
AC50 [6]: 13.1 µM (active)
